These results are taken from US11753446B2, “Beta-hairpin peptidomimetics” (POLYPHOR AG, priority 2014, dated 2023).

Series [1] relates to Acinetobacter baumannii DSM 30008. It is filed as cell-based. In outline:
(§1)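 Peptide MICs were determined by NCCLS broth microdilution in cation-adjusted Mueller-Hinton II broth. Inoculum was about 10^6 CFU/mL, matched to 0.5 McFarland, with peptides in two-fold serial dilutions. The broth contained Polysorbate 80 at 0.002% final concentration.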

Series [2] relates to Escherichia coli ATCC 25922. The format is cell-based. A digest of the protocol:
as §1

For series [3], the system named is Klebsiella pneumoniae ATCC 13883. It is filed as cell-based. In outline: as §1
Series [4] deals with human red blood cells (hRBC). Put plainly: Hemolysis: hemolytic activity at 100 μg/mL, 1 h at 37° C. In outline:
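Peptides at 100 μg/mL incubated with washed 20% (v/v) human erythrocytes (~0.9×10^9 cells/mL) for 1 h at 37 °C with shaking. Released hemoglobin read at OD 540 nm in supernatant; 0% and 100% lysis from PBS/0.001% acetic acid and 2.5% Triton X-100.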

[5] abbreviates: Mueller-Hinton II broth, 18-20 hours at 35° C.

SMILES strings stand for the structures. Read-outs that look alike come from different tables or passages of the source. Where a SMILES comes first, the peptide text is derived from it. Bridges are numbered along the chain shown (N, C = ends). Triazole bridges read from a SMILES are 1,4-linked. [ ]: non-standard residue; d: D form. Aha = [N-]=[N+]=NCC[C@H](N)C(=O)O; Tle = CC(C)(C)[C@H](N)C(=O)O; dDab = NCC[C@@H](N)C(=O)O; Orn = NCCC[C@H](N)C(=O)O; Pra = C#CC[C@H](N)C(=O)O; Dab = NCC[C@H](N)C(=O)O; Dap = NC[C@H](N)C(=O)O

With `CC[C@H](C)[C@@H]1NC(=O)[C@H](CCCNC(=N)N)NC(=O)[C@@H](CCN)NC(=O)[C@H](Cc2ccc(O)cc2)NC(=O)[C@@H]2CSSC[C@H](NC1=O)C(=O)N[C@@H](Cc1ccc(O)cc1)C(=O)N[C@@H](CC(N)=O)C(=O)N[C@@H](CCCN)C(=O)N[C@H](CCN)C(=O)N[C@@H](CCN)C(=O)N[C@@H](CC(C)C)C(=O)N[C@@H](CO)C(=O)N[C@@H](C(C)C)C(=O)N2` [Example 5, cyclo(-Ile-Cys-Tyr-Asn-Orn-^DDab-Dab-Leu-Ser-Val-Cys-Tyr-^DDab-Arg-)] (HELM PEPTIDE1{C.Y.N.[Orn].[NCC[C@@H](N[*:1])C(=O)[*:2]].[Dab].L.S.V.C.Y.[NCC[C@@H](N[*:1])C(=O)[*:2]].R.I}$PEPTIDE1,PEPTIDE1,1:R3-10:R3|PEPTIDE1,PEPTIDE1,1:R1-14:R2$$$V2.0), the “Acinetobacter baumannii DSM 30008 MIC” value in series [1] (DSM 30008) was 0.25 µg/mL. Moreover, the “Escherichia coli ATCC 25922 MIC” value in series [2] (ATCC 25922) stood at 0.5 µg/mL. Besides, in series [3] (ATCC 13883), the “Klebsiella pneumoniae ATCC 13883 MIC” value worked out at 0.25 µg/mL. Moreover, the “Hemolysis at 100 μg/mL” value in series [4] (red cells of human, 1 h, 100) is reported as 4%.
For the compound `CC(C)[C@@H]1NC(=O)[C@H](Cc2ccc(O)cc2)NC(=O)[C@@H](C)NC(=O)[C@H](CO)NC(=O)[C@@H]2CC(=O)NCC[C@H](NC1=O)C(=O)N[C@@H](Cc1ccc(O)cc1)C(=O)N[C@@H](CCN)C(=O)N[C@@H](CN)C(=O)N[C@H](CCN)C(=O)N[C@@H](CCN)C(=O)N[C@@H](Cc1c[nH]c3ccccc13)C(=O)N[C@@H](CN)C(=O)N[C@@H](C(C)(C)C)C(=O)N2` [Example 31, cyclo(-Val-Dab-Tyr-Dab-Dap-^DDab-Dab-Trp-Dap-tBuGly-Asp-Ser-^DAla-Tyr-)] (cyclo(DS[dA]YV[Dab]Y[Dab][Dap][dDab][Dab]W[Dap][Tle]); lactam 1-6), the “Acinetobacter baumannii DSM 30008 MIC” value in series [1] (DSM 30008) turned out to be 4 µg/mL. In addition, the “Escherichia coli ATCC 25922 MIC” value in series [2] (ATCC 25922) amounted to 1 µg/mL. Also, the “Klebsiella pneumoniae ATCC 13883 MIC” value in series [3] (ATCC 13883) was 1 µg/mL. The “Hemolysis at 100 μg/mL” value in series [4] (red cells of human, 1 h, 100) worked out at 1%.
As to `CC(C)C[C@@H]1NC(=O)[C@H](CCCCN)NC(=O)[C@@H](CCN)NC(=O)[C@H](C(C)C)NC(=O)[C@@H]2CSSC[C@H](NC1=O)C(=O)N[C@@H](Cc1ccc(O)cc1)C(=O)N[C@@H](CC(N)=O)C(=O)N[C@@H](CCCN)C(=O)N[C@H](CCN)C(=O)N[C@@H](CCN)C(=O)N[C@@H](Cc1c[nH]c3ccccc13)C(=O)N[C@@H](CO)C(=O)N[C@@H](Cc1ccc(O)cc1)C(=O)N2` [Example 67, cyclo(-Leu-Cys-Tyr-Asn-Orn-^DDab-Dab-Trp-Ser-Tyr-Cys-Val-^DDab-Lys-)] (HELM PEPTIDE1{C.V.[NCC[C@@H](N[*:1])C(=O)[*:2]].K.L.C.Y.N.[Orn].[NCC[C@@H](N[*:1])C(=O)[*:2]].[Dab].W.S.Y}$PEPTIDE1,PEPTIDE1,1:R3-6:R3|PEPTIDE1,PEPTIDE1,1:R1-14:R2$$$V2.0), the “Acinetobacter baumannii DSM 30008 MIC” value in series [1] (setting [5]) was found to be 1.5 µg/mL. The “Escherichia coli ATCC 25922 MIC” value in series [2] (setting [5]) amounted to 1 µg/mL. Further, in series [3] (setting [5]), the “Klebsiella pneumoniae ATCC 13883 MIC” value is 1 µg/mL. Moreover, the “Hemolysis at 100 μg/mL” value in series [4] (100 μg/mL, 20% hRBC, 1 h at 37° C.) turned out to be 1%.
For `CC(C)C[C@@H]1NC(=O)[C@H](CCCNC(=N)N)NC(=O)[C@@H](CCN)NC(=O)[C@H](C(C)C)NC(=O)[C@@H]2CSSC[C@H](NC1=O)C(=O)N[C@@H](Cc1ccc(O)cc1)C(=O)N[C@@H](CN)C(=O)N[C@@H](CCCN)C(=O)N[C@H](CCN)C(=O)N[C@@H](CCN)C(=O)N[C@@H](Cc1c[nH]c3ccccc13)C(=O)N[C@@H](CO)C(=O)N[C@@H](Cc1ccc(O)cc1)C(=O)N2` [Example 72, cyclo(-Leu-Cys-Tyr-Dap-Orn-^DDab-Dab-Trp-Ser-Tyr-Cys-Val-^DDab-Arg-)] (cyclo(CV[dDab]RLCY[Dap][Orn][dDab][Dab]WSY); disulfide 1-6), in series [1] (DSM 30008), the “Acinetobacter baumannii DSM 30008 MIC” value worked out at 0.625 µg/mL. In series [2] (ATCC 25922), the “Escherichia coli ATCC 25922 MIC” value is 0.75 µg/mL. Further, in series [3] (ATCC 13883), the “Klebsiella pneumoniae ATCC 13883 MIC” value was 0.5 µg/mL. In addition, the “Hemolysis at 100 μg/mL” value in series [4] (red cells of human, 1 h, 100) turned out to be 3%.
For `CC(C)C[C@@H]1NC(=O)[C@H](CCN)NC(=O)[C@@H](CCN)NC(=O)[C@H](CO)NC(=O)[C@H](C)NC(=O)[C@H](Cc2ccc(O)cc2)NC(=O)[C@@H]2CSSC[C@H](NC(=O)[C@H](Cc3ccc(O)cc3)NC(=O)[C@H](CO)NC1=O)C(=O)N[C@@H](CCCN)C(=O)N[C@H](CCN)C(=O)N[C@@H](CCN)C(=O)N[C@@H](Cc1c[nH]c3ccccc13)C(=O)N2` [Example 38, cyclo(-Leu-Ser-Tyr-Cys-Orn-^DDab-Dab-Trp-Cys-Tyr-Ala-Ser-^DDab-Dab-)] (HELM PEPTIDE1{A.S.[NCC[C@@H](N[*:1])C(=O)[*:2]].[Dab].L.S.Y.C.[Orn].[NCC[C@@H](N[*:1])C(=O)[*:2]].[Dab].W.C.Y}$PEPTIDE1,PEPTIDE1,8:R3-13:R3|PEPTIDE1,PEPTIDE1,1:R1-14:R2$$$V2.0) the same measures were 3 µg/mL, 2 µg/mL, 2 µg/mL and 1%.
For `CC(C)C[C@@H]1NC(=O)[C@H](CCCNC(=N)N)NC(=O)[C@@H](CCN)NC(=O)[C@H](C(C)C)NC(=O)[C@@H]2CSSC[C@H](NC1=O)C(=O)N[C@@H](Cc1ccc(O)cc1)C(=O)N[C@@H](CO)C(=O)N[C@@H](CCCN)C(=O)N[C@H](CCN)C(=O)N[C@@H](CCN)C(=O)N[C@@H](Cc1c[nH]c3ccccc13)C(=O)N[C@@H](CC(N)=O)C(=O)N[C@@H](Cc1ccc(O)cc1)C(=O)N2` [Example 52, cyclo(-Leu-Cys-Tyr-Ser-Orn-^DDab-Dab-Trp-Asn-Tyr-Cys-Val-^DDab-Arg-)] (HELM PEPTIDE1{C.V.[NCC[C@@H](N[*:1])C(=O)[*:2]].R.L.C.Y.S.[Orn].[NCC[C@@H](N[*:1])C(=O)[*:2]].[Dab].W.N.Y}$PEPTIDE1,PEPTIDE1,1:R3-6:R3|PEPTIDE1,PEPTIDE1,1:R1-14:R2$$$V2.0) the same measures were 1.25 µg/mL, 0.75 µg/mL, 1.5 µg/mL and 1%.
For `CC[C@H](C)[C@@H]1NC(=O)[C@H](Cc2ccc(O)cc2)NC(=O)[C@H]2CCCN2C(=O)[C@H](CO)NC(=O)[C@H](C)NC(=O)[C@H](C(C)(C)C)NC(=O)[C@H](CCN)NC(=O)[C@H](Cc2c[nH]c3ccccc23)NC(=O)[C@H](CCN)NC(=O)[C@@H](CCN)NC(=O)[C@H](CCCN)NC(=O)[C@H](CCN)NC(=O)[C@H](Cc2ccc(O)cc2)NC(=O)[C@H]([C@@H](C)O)NC1=O` [Example 47, cyclo(-Ile-Thr-Tyr-Dab-Orn-^DDab-Dab-Trp-Dab-tBuGly-Ala-Ser-^DPro-Tyr-)] (HELM PEPTIDE1{A.S.[dP].Y.I.T.Y.[Dab].[Orn].[NCC[C@@H](N[*:1])C(=O)[*:2]].[Dab].W.[Dab].[CC(C)(C)[C@H](N[*:1])C(=O)[*:2]]}$PEPTIDE1,PEPTIDE1,1:R1-14:R2$$$V2.0), in that order: 4 µg/mL, 1 µg/mL, 1 µg/mL and 0%.
In the case of `CC(C)C[C@@H]1NC(=O)[C@H](CCCNC(=N)N)NC(=O)[C@H]2CCCN2C(=O)[C@H](C(C)C)NC(=O)[C@@H]2CSSC[C@H](NC1=O)C(=O)N[C@@H](Cc1ccc(O)cc1)C(=O)N[C@@H](C)C(=O)N[C@@H](CCCN)C(=O)N[C@H](CCN)C(=O)N[C@@H](CCN)C(=O)N[C@@H](Cc1c[nH]c3ccccc13)C(=O)N[C@@H](C)C(=O)N[C@@H](C(C)C)C(=O)N2` [Example 3, cyclo(-Leu-Cys-Tyr-Ala-Orn-^DDab-Dab-Trp-Ala-Val-Cys-Val-^DPro-Arg-)] (HELM PEPTIDE1{A.[Orn].[NCC[C@@H](N[*:1])C(=O)[*:2]].[Dab].W.A.V.C.V.[dP].R.L.C.Y}$PEPTIDE1,PEPTIDE1,8:R3-13:R3|PEPTIDE1,PEPTIDE1,1:R1-14:R2$$$V2.0), the “Acinetobacter baumannii DSM 30008 MIC” value in series [1] (DSM 30008) stood at 1 µg/mL. Also, in series [2] (ATCC 25922), the “Escherichia coli ATCC 25922 MIC” value stood at 2 µg/mL. Moreover, in series [3] (ATCC 13883), the “Klebsiella pneumoniae ATCC 13883 MIC” value was 1 µg/mL. Besides, in series [4] (red cells of human, 1 h, 100), the “Hemolysis at 100 μg/mL” value was determined as 4%.
Consider `CC(C)[C@@H]1NC(=O)[C@@H]2CCCN2C(=O)[C@H]2CCCN2C(=O)[C@H](CO)NC(=O)[C@@H]2CCn3cc(nn3)C[C@H](NC1=O)C(=O)N[C@@H](Cc1ccc(O)cc1)C(=O)N[C@@H](CCN)C(=O)N[C@@H](CN)C(=O)N[C@H](CCN)C(=O)N[C@@H](CCN)C(=O)N[C@@H](Cc1c[nH]c3ccccc13)C(=O)N[C@@H](CCN)C(=O)N[C@@H](C(C)(C)C)C(=O)N2` [Example 34, cyclo(-Val-Pra-Tyr-Dab-Dap-^DDab-Dab-Trp-Dab-tBuGly-Abu(4N3)-Ser-^DPro-Pro-)] (cyclo(V[Pra]Y[Dab][Dap][dDab][Dab]W[Dab][Tle][Aha]S[dP]P); triazole 2-11), for which the “Acinetobacter baumannii DSM 30008 MIC” value in series [1] (DSM 30008) amounted to 4 µg/mL. Also, the “Escherichia coli ATCC 25922 MIC” value in series [2] (ATCC 25922) worked out at 4 µg/mL. In addition, the “Klebsiella pneumoniae ATCC 13883 MIC” value in series [3] (ATCC 13883) is 2 µg/mL. The “Hemolysis at 100 μg/mL” value in series [4] (red cells of human, 1 h, 100) is listed as 0%.
